Biological target: T1, human Cav2.2 (composed of the subunits α1, β3 and α2δ) (Homo sapiens, UniProt Q00975)
T1 construct: expressed in transfected cells
Assay: FLIPR assay (TSA201 cells stably transfected with human Cav2.2 and human Kir2.3, FLUO-4 Ca2+ signal, KCl depolarization)
Type: cell-based
Details: 70 mM KCl depolarization, average value
In short: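 TSA201 cells co-expressing Cav2.2 (α1, β3, α2δ) and Kir2.3 were loaded with FLUO-4 for 1 h at room temperature. Compound in HBSS with 1% DMSO was preincubated 15 min, then cells were depolarized with 70 mM final KCl (with CaCl2 and HEPES) and the Ca2+ fluorescence was read on FLIPR.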

T1 sequence (Q00975 whole entry): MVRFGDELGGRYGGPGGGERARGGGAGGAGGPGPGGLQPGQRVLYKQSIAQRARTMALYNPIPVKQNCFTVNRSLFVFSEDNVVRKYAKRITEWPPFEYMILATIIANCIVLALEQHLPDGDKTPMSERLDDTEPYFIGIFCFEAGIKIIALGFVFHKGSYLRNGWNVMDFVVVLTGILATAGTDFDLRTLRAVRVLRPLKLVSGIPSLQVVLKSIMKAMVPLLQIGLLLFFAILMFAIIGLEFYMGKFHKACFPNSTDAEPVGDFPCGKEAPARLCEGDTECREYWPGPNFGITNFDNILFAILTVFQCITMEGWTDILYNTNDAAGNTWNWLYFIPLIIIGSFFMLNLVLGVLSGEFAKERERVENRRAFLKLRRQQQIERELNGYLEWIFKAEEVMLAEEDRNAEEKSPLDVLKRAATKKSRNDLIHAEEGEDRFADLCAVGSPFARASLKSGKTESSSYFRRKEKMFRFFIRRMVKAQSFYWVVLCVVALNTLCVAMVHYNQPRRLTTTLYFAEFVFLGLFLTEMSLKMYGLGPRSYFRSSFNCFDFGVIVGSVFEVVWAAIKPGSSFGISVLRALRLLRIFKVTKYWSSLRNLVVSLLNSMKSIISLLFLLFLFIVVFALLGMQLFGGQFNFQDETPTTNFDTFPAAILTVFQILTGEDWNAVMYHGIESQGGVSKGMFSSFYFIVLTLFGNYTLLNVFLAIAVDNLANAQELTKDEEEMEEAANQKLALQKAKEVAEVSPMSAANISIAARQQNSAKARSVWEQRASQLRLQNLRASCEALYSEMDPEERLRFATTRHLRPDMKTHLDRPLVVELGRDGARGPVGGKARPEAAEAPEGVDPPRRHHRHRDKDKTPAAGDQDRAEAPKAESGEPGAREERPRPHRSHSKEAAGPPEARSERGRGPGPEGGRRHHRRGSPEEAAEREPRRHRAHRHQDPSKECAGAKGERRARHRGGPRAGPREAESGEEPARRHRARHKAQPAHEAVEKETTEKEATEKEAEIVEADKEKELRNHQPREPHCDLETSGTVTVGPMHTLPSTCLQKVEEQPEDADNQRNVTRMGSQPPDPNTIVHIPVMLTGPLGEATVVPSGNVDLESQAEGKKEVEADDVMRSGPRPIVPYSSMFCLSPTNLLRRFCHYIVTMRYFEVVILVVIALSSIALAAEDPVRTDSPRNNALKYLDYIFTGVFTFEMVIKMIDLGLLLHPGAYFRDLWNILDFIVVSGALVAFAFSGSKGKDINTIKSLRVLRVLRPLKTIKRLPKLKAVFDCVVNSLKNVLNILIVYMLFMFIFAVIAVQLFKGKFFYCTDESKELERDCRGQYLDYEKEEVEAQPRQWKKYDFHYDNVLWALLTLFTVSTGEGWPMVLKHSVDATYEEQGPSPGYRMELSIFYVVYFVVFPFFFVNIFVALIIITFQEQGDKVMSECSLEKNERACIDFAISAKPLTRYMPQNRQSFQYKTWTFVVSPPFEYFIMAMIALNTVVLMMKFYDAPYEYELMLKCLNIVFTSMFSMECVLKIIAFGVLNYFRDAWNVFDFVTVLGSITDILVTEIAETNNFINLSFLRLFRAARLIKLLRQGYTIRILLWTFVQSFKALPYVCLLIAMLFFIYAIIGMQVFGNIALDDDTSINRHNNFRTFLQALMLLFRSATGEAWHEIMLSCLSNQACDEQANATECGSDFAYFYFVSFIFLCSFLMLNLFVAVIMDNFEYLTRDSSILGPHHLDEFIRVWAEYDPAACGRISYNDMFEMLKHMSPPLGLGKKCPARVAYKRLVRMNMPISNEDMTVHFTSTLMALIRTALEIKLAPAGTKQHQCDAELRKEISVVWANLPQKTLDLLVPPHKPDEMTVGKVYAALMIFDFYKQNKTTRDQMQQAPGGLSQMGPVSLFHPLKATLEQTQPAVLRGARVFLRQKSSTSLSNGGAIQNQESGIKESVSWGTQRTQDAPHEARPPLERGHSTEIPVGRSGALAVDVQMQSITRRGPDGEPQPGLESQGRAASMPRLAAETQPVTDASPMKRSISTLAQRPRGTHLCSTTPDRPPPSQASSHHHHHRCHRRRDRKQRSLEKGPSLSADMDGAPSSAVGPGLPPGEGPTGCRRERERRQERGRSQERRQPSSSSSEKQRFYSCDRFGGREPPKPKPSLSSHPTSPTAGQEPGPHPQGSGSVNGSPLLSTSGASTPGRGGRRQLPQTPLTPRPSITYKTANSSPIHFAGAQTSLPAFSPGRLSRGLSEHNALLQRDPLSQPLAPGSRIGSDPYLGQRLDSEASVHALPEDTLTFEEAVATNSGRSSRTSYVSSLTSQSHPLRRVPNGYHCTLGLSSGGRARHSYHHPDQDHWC
T1 sequence (P54284 whole entry partner): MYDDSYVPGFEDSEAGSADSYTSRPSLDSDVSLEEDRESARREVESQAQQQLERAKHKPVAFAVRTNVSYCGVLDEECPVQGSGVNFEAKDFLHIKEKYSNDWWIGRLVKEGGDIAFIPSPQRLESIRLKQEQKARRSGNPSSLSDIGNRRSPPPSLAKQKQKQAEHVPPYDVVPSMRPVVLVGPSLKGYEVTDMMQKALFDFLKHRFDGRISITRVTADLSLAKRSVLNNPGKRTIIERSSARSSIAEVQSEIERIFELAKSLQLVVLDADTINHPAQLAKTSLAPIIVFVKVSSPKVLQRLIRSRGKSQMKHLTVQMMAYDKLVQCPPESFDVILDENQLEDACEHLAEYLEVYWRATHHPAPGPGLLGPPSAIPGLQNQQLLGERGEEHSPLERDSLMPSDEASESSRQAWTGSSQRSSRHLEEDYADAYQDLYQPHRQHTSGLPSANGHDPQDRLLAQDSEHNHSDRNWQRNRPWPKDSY
T1 sequence (P54289 25-946 partner limits assumed): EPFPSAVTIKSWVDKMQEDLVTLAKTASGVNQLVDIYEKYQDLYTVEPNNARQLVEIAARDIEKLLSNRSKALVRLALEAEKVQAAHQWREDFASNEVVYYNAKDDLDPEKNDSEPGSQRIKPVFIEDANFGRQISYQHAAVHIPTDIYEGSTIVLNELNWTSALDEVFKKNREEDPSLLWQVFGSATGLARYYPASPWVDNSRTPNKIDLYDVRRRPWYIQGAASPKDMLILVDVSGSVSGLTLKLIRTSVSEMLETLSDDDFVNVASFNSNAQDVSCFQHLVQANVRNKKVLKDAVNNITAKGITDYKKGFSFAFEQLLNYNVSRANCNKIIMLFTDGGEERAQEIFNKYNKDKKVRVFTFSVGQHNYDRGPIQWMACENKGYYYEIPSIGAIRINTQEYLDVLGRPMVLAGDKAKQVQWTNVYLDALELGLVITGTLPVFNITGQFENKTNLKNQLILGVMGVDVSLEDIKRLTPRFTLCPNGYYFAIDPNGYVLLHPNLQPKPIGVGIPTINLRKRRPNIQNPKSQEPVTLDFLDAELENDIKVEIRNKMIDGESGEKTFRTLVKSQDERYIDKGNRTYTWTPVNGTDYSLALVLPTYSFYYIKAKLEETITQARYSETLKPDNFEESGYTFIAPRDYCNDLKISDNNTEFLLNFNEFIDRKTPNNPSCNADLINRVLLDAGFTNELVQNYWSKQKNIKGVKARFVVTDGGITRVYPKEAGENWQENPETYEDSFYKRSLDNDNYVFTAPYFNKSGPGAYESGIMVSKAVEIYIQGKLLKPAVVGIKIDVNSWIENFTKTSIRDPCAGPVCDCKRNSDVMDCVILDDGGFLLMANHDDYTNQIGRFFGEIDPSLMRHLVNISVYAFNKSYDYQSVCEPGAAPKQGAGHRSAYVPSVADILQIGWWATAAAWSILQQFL
T1 sequence (P54289 947-1103 partner limits assumed): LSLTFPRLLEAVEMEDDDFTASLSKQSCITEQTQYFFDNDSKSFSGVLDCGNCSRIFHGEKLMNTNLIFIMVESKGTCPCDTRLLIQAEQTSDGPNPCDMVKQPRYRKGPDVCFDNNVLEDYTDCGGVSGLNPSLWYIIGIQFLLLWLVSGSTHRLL

| SMILES | IC50 [µM] |
| --- | --- |
| CC(C)(C)OC(=O)N1CCC(c2nc(CN(C(=O)C(C)(C)C)c3ccc(F)cc3)cs2)CC1 [Compound 209, tert-butyl 4-(4-{[(2,2-dimethylpropanoyl)(4-fluorophenyl)amino]methyl}--1,3-thiazol-2-yl)piperidine-1-carboxylate] | 2.7 |
| CCN(c1nc(CN(C(=O)C2CCCCC2)c2ccc(F)cc2)cs1)C1CC1 [Compound 211, N-({2-[cyclopropyl(ethyl)amino]-1,3-thiazol-4-yl}methyl)-N-(4-fluorophenyl)cyclohexanecarboxamide] | 2.4 |
| CC(=O)N(Cc1ccc(Cl)nc1)c1ccc(F)cc1 [Compound 215, N-[(6-chloropyridin-3-yl)methyl]-N-(4-fluorophenyl)acetamide] | 21.4 |
| CC(=O)N(Cc1ccc(N2CCCN(C)CC2)nc1)c1ccc(F)cc1 [Compound 226, N-(4-fluorophenyl)-N-{[6-(4-methyl-1,4-diazepan-1-yl)pyridin-3-yl]methyl}acetamide] | 26.2 |
| CC(=O)N(Cc1ccc(N2CCOCC2)nc1)c1ccc(F)cc1 [Compound 227, N-(4-fluorophenyl)-N-[(6-morpholin-4-ylpyridin-3-yl)methyl]acetamide] | 35 |
| CCN(CC)c1ccc(CN(C(C)=O)c2ccc(F)cc2)cn1 [Compound 228, N-{[6-(diethylamino)pyridin-3-yl]methyl}-N-(4-fluorophenyl)acetamide] | 12.6 |
| CC(=O)N(Cc1ccc(N(C)CCO)nc1)c1ccc(F)cc1 [Compound 230, N-(4-fluorophenyl)-N-({6-[(2-hydroxyethyl)(methyl)amino]pyridin-3-yl}methyl)acetamide] | 45.3 |
| CC(=O)N(Cc1ccc(N2CCCC(CO)C2)nc1)c1ccc(F)cc1 (stereo not shown) [Compound 234, N-(4-fluorophenyl)-N-({6-[3-(hydroxymethyl)piperidin-1-yl]pyridin-3-yl}methyl)acetamide] | 13.9 |
| CC(=O)N(Cc1ccc(N2CCC(CO)CC2)nc1)C1CCCC1 [Compound 235, N-cyclopentyl-N-({6-[4-(hydroxymethyl)piperidin-1-yl]pyridin-3-yl}methyl)acetamide] | 36.4 |
| CC(=O)N(Cc1ccc(N2CCN(C)CC2)nc1)C1CCCCC1 [Compound 236, N-cyclohexyl-N-{[6-(4-methylpiperzin-1-yl)pyridin-3-yl]methyl}acetamide] | 29.4 |
| CC(=O)N(Cc1ccc(N2CCC(CO)CC2)nc1)C1CCCCC1 [Compound 237, N-cyclohexyl-N-({6-[4-(hydroxymethyl)piperidin-1-yl]pyridin-3-yl}methyl)acetamide] | 23.9 |
| CCN(c1nc(CN(C(C)=O)C2CCC(C(C)(C)C)CC2)cs1)C1CC1 (stereo not shown) [Compound 238, N-(4-tert-butylcyclohexyl)-N-({2-[cyclopropyl(ethyl)amino]-1,3-thiazol-4-yl}methyl)acetamide] | 3.3 |
| CC1CN(c2nc(CN(C(=O)C(C)(C)C)c3ccc(F)cc3)cs2)CC(C)O1 (stereo not shown) [Compound 239, 2,2-dimethylpropanamide N-{[2-(2,6-dimethylmorpholin-4-yl)-1,3-thiazol-4-yl]methyl}-N-(4-fluorophenyl)-] | 3.4 |
| CC(C)(C)C(=O)N(Cc1csc(-c2cnc3ccccc3c2)n1)c1ccc(F)cc1 [Compound 240, N-(4-fluorophenyl)-2,2-dimethyl-N-[(2-quinolin-3-yl-1,3-thiazol-4-yl)methyl]propanamide] | 10.1 |
| CC(C)(C)C(=O)N(Cc1csc(-c2ccc(C(F)(F)F)cc2)n1)c1ccc(F)cc1 [Compound 241, N-(4-fluorophenyl)-2,2-dimethyl-N-({2-[4-(trifluoromethyl)phenyl]-1,3-thiazol-4-yl}methyl)propanamide] | 6.7 |
| CC(C)(C)C(=O)N(Cc1csc(-c2cccc(C(F)(F)F)c2)n1)c1ccc(F)cc1 [Compound 242, N-(4-fluorophenyl)-2,2-dimethyl-N-({2-[3-(trifluoromethyl)phenyl]-1,3-thiazol-4-yl]methyl)propanamide] | 5.5 |
| CC(C)(C)C(=O)N(Cc1csc(-c2ccccc2C(F)(F)F)n1)c1ccc(F)cc1 [Compound 243, N-(4-fluorophenyl)-2,2-dimethyl-N-({2-[2-(trifluoromethyl)phenyl]-1,3-thiazol-4-yl}methyl)propanamide] | 4.1 |
| CC(C)(C)C(=O)N(Cc1csc(-c2ccc(O)cc2)n1)c1ccc(F)cc1 [Compound 244, N-(4-fluorophenyl)-N-{[2-(4-hydroxyphenyl)-1,3-thiazol-4-yl]methyl}-2,2-dimethylpropanamide] | 7.3 |
| CC(C)(C)C(=O)N(Cc1csc(-c2cccc(O)c2)n1)c1ccc(F)cc1 [Compound 245, N-(4-fluorophenyl)-N-{[2-(3-hydroxyphenyl)-1,3-thiazol-4-yl]methyl}-2,2-dimethylpropanamide] | 5.4 |
| CC(C)(C)C(=O)N(Cc1csc(-c2ccccc2O)n1)c1ccc(F)cc1 [Compound 246, N-(4-fluorophenyl)-N-{[2-(2-hydroxyphenyl)-1,3-thiazol-4-yl]methyl}-2,2-dimethylpropanamide] | 7.2 |

Further lines, results first:

| IC50 [µM] | SMILES |
| --- | --- |
| 23.9 | O=C(C1CC1)N(Cc1csc(N2CCOCC2)n1)c1ccc(F)cc1 [Compound 207, N-(4-fluorophenyl)-N-[(2-morpholin-4-yl-1,3-thiazol-4-yl)methyl]cyclopropanecarboxamide] |
| 22.2 | CC(C)C(=O)N(Cc1csc(N2CCOCC2)n1)c1ccc(F)cc1 [Compound 208, N-(4-fluorophenyl)-2-methyl-N-[(2-morpholin-4-yl-1,3-thiazol-4-yl)methyl]propanamide] |
| 9.1 | CCN(c1nc(CN(C(C)=O)c2ccc(F)cc2)cs1)C1CC1 [Compound 210, N-({2-[cyclopropyl(ethyl)amino]-1,3-thiazol-4-yl}methyl)-N-(4-fluorophenyl)acetamide] |
| 5.9 | CC(C)(C)C(=O)N(CCc1csc(N2CCOCC2)n1)c1ccc(F)cc1 [Compound 212, N-(4-flurophenyl)-2,2-dimethyl-N-[2-(2-morpholin-4-yl-1,3-thiazol-4-yl)ethyl]propanamide] |
| 3.8 | CC(C)(C)C(=O)N(CCCc1csc(N2CCOCC2)n1)c1ccc(F)cc1 [Compound 213, N-(4-fluorophenyl)-2,2-dimethyl-N-[3-(2-morpholin-4-yl-1,3-thiazol-4-yl)propyl]propanamide] |
| 48.7 | CC(=O)N(Cc1csc(Br)n1)c1ccc(F)cc1 [Compound 214, N-[(2-bromo-1,3-thiazol-4-yl)methyl]-N-(4-fluorophenyl)acetamide] |
| 29.4 | CC(=O)N(Cc1csc(N2CCN(C)CC2)n1)c1ccc(F)cc1 [Compound 216, N-(4-fluorophenyl)-N-{[2-(4-methylpiperazin-1-yl)-1,3-thiazol-4-yl]methyl}acetamide] |
| 29.5 | CC(=O)N(Cc1csc(N2CCCN(C)CC2)n1)c1ccc(F)cc1 [Compound 217, N-(4-fluorophenyl)-N-{[2-(4-methyl-1,4-diazepan-1-yl)-1,3-thiazol-4-yl]methyl}acetamide] |
| 23.4 | CC(=O)N(Cc1csc(N2CCOCC2)n1)c1ccc(F)cc1 [Compound 218, N-(4-fluorophenyl)-N-[(2-morpholin-4-yl-1,3-thiaozl-4-yl)methyl]acetamide] |
| 8.7 | CCN(CC)c1nc(CN(C(C)=O)c2ccc(F)cc2)cs1 [Compound 219, N-{[2-(diethylamino)-1,3-thiaozl-4-yl]methyl}-N-(4-fluorophenyl)acetamide] |
| 16.6 | CC(=O)N(Cc1csc(N2CCC(C#N)CC2)n1)c1ccc(F)cc1 [Compound 220, N-{[2-(4-cyanopiperidin-1-yl)-1,3-thiazol-4-yl]methyl}-N-(4-fluorophenyl)acetamide] |
| 37 | CC(=O)N(Cc1csc(N(C)CCO)n1)c1ccc(F)cc1 [Compound 221, N-(4-fluorophenyl)-N-({2-[(2-hydroxyethyl)(methyl)amino]-1,3-thiazol-4-yl}methyl)acetamide] |
| 22.4 | CC(=O)N(Cc1csc(N2CCC(O)CC2)n1)c1ccc(F)cc1 [Compound 222, N-(4-fluorophenyl)-N-{[2-(4-hydroxypiperidin-1-yl)-1,3-thiazol-4-yl]methyl}acetamide] |
| 31.4 | CC(=O)N(Cc1csc(N2CCCC(O)C2)n1)c1ccc(F)cc1 (stereo not shown) [Compound 223, N-(4-fluorophenyl)-N-{[2-(3-hydroxypiperidin-1-yl)-1,3-thiazol-4-yl]methyl}acetamide] |
| 12.3 | CC(=O)N(Cc1csc(N2CCC(CO)CC2)n1)c1ccc(F)cc1 [Compound 224, N-(4-fluorophenyl)-N-({2-[4-(hydroxymethyl)piperidin-1-yl]-1,3-thiazol-4-yl}methyl)acetamide] |
| 16.4 | CC(=O)N(Cc1csc(N2CCCC(CO)C2)n1)c1ccc(F)cc1 (stereo not shown) [Compound 225, N-(4-fluorophenyl)-N-({2-[3-(hydroxymethyl)piperidin-1-yl]-1,3-thiazol-4-yl}methyl)acetamide] |
| 19.7 | CC(=O)N(Cc1ccc(N2CCC(C#N)CC2)nc1)c1ccc(F)cc1 [Compound 229, N-{[6-(4-cyanopiperidin-1-yl)pyridin-3-yl]methyl}-N-(4-fluorophenyl)acetamide] |
| 49.7 | CC(=O)N(Cc1ccc(N2CCC(O)CC2)nc1)c1ccc(F)cc1 [Compound 231, N-(4-fluorophenyl)-N-{[6-(4-hydroxypiperidin-1-yl)pyridin-3-yl]methyl}acetamide] |
| 30.2 | CC(=O)N(Cc1ccc(N2CCCC(O)C2)nc1)c1ccc(F)cc1 (stereo not shown) [Compound 232, N-(4-fluorophenyl)-N-{[6-(3-hydroxypiperidin-1-yl)pyridin-3-yl]methyl}acetamide] |
| 22.2 | CC(=O)N(Cc1ccc(N2CCC(CO)CC2)nc1)c1ccc(F)cc1 [Compound 233, N-(4-fluorophenyl)-N-({6-[4-(hydroxymethyl)piperidin-1-yl]pyridin-3-yl}methyl)acetamide] |
